Test results as given in patent US20090247559A1 (Exelixis, Inc., priority 2007, published 2009).
Counter-ions that a name gives are not always drawn. Like-named read-outs stand apart in the source and are kept apart here.

Columns and labels:
[1] = molecular target: CDC7 (Homo sapiens, UniProt O00311); experiment: CDC7 inhibition, biochemical chemiluminescence assay (Kinase Glo, IC50 determination)
Procedure, shortened: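 CDC7 enzyme preincubated with compound 10 min at ambient temperature, then ATP mix in Tris Base added; reaction 90 min at 24-27 °C. Remaining ATP quantified by Kinase Glo luminescence to give IC50.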

[2] = molecular target: CK2 (Homo sapiens, UniProt P68400); experiment: CK2 inhibition, biochemical chemiluminescence holoenzyme assay (Kinase Glo, IC50 determination); conditions: Table 1 activity class; symbol given only if active; read-out: CK2 IC50 (Activity C)
Procedure, shortened: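 Holoenzyme CK2 assay; compounds pre-incubated with substrate and enzyme, then reacted 150 min at 24-27° C. Remaining ATP measured as luminescence with Kinase Glo, and IC50 derived from the signal.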

[3] = molecular target: PIM (PIM-1, PIM-2, and/or PIM-3); experiment: PIM-1, PIM-2 and PIM-3 inhibition, biochemical chemiluminescence assays (Kinase Glo, IC50 determination); conditions: Table 1 activity class; PIM refers to PIM-1, PIM-2, and/or PIM-3; read-out: PIM IC50 (Activity B)
[4] = Table 1 activity class, symbol given only if active, read-out: CDC7 IC50 (Activity A)
[5] = compounds in Table 1, read-out: CDC7 IC50 value

Sequence of CK2 (P68400 whole entry): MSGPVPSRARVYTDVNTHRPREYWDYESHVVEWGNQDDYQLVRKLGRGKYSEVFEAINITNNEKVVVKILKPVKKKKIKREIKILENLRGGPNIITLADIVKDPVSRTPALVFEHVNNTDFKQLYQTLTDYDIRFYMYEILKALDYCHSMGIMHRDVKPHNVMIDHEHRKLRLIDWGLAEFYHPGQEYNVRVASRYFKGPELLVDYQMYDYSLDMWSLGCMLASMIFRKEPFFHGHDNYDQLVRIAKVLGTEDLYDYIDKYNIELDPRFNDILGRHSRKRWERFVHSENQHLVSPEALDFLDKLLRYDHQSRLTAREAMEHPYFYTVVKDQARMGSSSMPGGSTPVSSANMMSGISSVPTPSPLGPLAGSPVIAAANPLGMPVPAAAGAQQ
Sequence of CK2 (P67870 whole entry partner): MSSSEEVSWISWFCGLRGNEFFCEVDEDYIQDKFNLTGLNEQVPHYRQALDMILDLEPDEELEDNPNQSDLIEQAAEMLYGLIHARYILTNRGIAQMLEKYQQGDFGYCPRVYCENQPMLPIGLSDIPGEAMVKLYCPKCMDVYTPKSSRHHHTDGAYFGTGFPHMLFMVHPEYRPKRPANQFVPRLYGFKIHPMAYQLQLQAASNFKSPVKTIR
Sequence of CDC7 (O00311 whole entry): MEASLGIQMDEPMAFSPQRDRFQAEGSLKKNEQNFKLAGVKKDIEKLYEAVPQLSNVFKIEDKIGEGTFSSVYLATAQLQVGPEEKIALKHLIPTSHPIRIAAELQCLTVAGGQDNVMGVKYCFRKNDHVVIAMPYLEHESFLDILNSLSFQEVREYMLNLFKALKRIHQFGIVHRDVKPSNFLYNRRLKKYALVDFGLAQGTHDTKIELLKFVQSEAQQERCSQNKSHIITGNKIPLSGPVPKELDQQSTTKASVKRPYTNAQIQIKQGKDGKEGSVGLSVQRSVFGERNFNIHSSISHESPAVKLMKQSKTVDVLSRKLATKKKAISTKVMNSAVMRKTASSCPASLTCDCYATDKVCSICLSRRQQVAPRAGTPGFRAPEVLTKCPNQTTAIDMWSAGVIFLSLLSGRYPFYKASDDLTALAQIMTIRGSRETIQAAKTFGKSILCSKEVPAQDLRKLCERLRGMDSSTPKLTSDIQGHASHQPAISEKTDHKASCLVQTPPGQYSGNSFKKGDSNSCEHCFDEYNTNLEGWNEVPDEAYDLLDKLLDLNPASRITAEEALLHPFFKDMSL
Sequence of CDC7 (Q9UBU7 whole entry partner): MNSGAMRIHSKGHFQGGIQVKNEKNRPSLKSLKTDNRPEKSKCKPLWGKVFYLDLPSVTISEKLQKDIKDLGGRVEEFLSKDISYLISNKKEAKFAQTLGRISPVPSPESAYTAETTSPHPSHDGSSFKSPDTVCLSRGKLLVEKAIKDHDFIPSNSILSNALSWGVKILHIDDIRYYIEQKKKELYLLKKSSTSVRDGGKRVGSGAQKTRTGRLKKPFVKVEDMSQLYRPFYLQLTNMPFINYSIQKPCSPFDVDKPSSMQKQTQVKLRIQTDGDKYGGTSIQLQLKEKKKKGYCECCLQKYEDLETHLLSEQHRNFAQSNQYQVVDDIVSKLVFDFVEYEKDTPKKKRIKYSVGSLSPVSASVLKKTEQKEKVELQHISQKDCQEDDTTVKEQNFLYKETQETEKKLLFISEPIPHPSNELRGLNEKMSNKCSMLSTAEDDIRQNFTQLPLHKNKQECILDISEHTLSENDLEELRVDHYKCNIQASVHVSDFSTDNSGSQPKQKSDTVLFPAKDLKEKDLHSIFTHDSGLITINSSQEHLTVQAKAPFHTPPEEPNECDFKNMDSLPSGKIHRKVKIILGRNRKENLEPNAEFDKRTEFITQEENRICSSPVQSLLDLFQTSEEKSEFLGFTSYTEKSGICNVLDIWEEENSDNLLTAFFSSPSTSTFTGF

SMILES	IC50 [1, 4]	IC50 [2]	IC50 [3]	IC50 [1, 5]
O=c1[nH]c(-c2ccc(NCCC3CCCNC3)cc2Cl)nc2c1oc1ccc(Br)cc12 (stereo not drawn) [Compound 155, 8-bromo-2-{2-chloro-4-[(2-piperidin-3-ylethyl)amino]phenyl}[1]benzofuro[3,2-d]pyrimidin-4(3H)-one]	< 10 µM	< 10 µM	< 10 µM	–
CN(C)CCCC(=O)Nc1ccc(-c2nc3c(oc4ccc(Br)cc43)c(=O)[nH]2)c(Cl)c1 [Compound 160, N-[4-(8-bromo-4-oxo-3,4-dihydro[1]benzofuro[3,2-d]pyrimidin-2-yl)-3-chlorophenyl]-4-(dimethylamino)butanamide]	< 10 µM	< 10 µM	< 10 µM	–
O=C(Nc1ccc(-c2nc3c(oc4ccc(Br)cc43)c(=O)[nH]2)c(Cl)c1)C1CCNCC1 [Compound 161, N-[4-(8-bromo-4-oxo-3,4-dihydro[1]benzofuro[3,2-d]pyrimidin-2-yl)-3-chlorophenyl]piperidine-4-carboxamide]	< 10 µM	< 10 µM	< 10 µM	–
O=c1[nH]c(CNCCc2ccncc2)nc2c1oc1ccc(Br)cc12 [Compound 166, 8-bromo-2-{[(2-pyridin-4-ylethyl)amino]methyl}[1]benzofuro[3,2-d]pyrimidin-4(3H)-one]	< 10 µM	< 10 µM	< 10 µM	< 0.1 µM
Nc1cc(-c2nc3c(oc4ccc(Br)cc43)c(=O)[nH]2)c(Cl)cn1 [Compound 173, 2-(2-amino-5-chloropyridin-4-yl)-8-bromo[1]benzofuro[3,2-d]pyrimidin-4(3H)-one]	< 10 µM	< 10 µM	< 10 µM	< 0.1 µM
NC(c1ccccc1)c1nc2c(oc3ccc(Br)cc32)c(=O)[nH]1 (stereo not drawn) [Compound 174, 2-[amino(phenyl)methyl]-8-bromo[1]benzofuro[3,2-d]pyrimidin-4(3H)-one]	< 10 µM	< 10 µM	< 10 µM	< 0.1 µM
O=C(Nc1ccc(-c2nc3c(oc4ccc(Br)cc43)c(=O)[nH]2)c(Cl)c1)C1CCNC1 (stereo not drawn) [Compound 178, N-[4-(8-bromo-4-oxo-3,4-dihydro[1]benzofuro[3,2-d]pyrimidin-2-yl)-3-chlorophenyl]pyrrolidine-3-carboxamide]	< 10 µM	< 10 µM	< 10 µM	–
O=C(Cc1c[nH]cn1)Nc1ccc(-c2nc3c(oc4ccc(Br)cc43)c(=O)[nH]2)c(Cl)c1 [Compound 182, N-[4-(8-bromo-4-oxo-3,4-dihydro[1]benzofuro[3,2-d]pyrimidin-2-yl)-3-chlorophenyl]-2-(1H-imidazol-4-yl)acetamide]	< 10 µM	< 10 µM	< 10 µM	–
O=c1[nH]c(-c2ccc(NCCC3CCNCC3)cc2Cl)nc2c1oc1ccc(Br)cc12 [Compound 197, 8-bromo-2-{2-chloro-4-[(2-piperidin-4-ylethyl)amino]phenyl}[1]benzofuro[3,2-d]pyrimidin-4(3H)-one]	< 10 µM	< 10 µM	< 10 µM	–
Nc1n[nH]c2cc(-c3nc4c(oc5ccc(Br)cc54)c(=O)[nH]3)c(Cl)cc12 [Compound 205, 2-(3-amino-5-chloro-1H-indazol-6-yl)-8-bromo[1]benzofuro[3,2-d]pyrimidin-4(3H)-one]	< 10 µM	< 10 µM	< 10 µM	–
O=c1[nH]c(Nc2cccnc2)nc2c1oc1ccc(Br)cc12 [Compound 214, 8-bromo-2-(pyridin-3-ylamino)[1]benzofuro[3,2-d]pyrimidin-4(3H)-one]	< 10 µM	< 10 µM	< 10 µM	< 0.1 µM
O=C(CC1CCNCC1)Nc1ccc(-c2nc3c(oc4ccc(Br)cc43)c(=O)[nH]2)c(Cl)c1 [Compound 217, N-[4-(8-bromo-4-oxo-3,4-dihydro[1]benzofuro[3,2-d]pyrimidin-2-yl)-3-chlorophenyl]-2-piperidin-4-ylacetamide]	< 10 µM	< 10 µM	< 10 µM	–
Nc1n[nH]c2ccc(-c3nc4c(oc5ccc(Br)cc54)c(=O)[nH]3)cc12 [Compound 220, 2-(3-amino-1H-indazol-5-yl)-8-bromo[1]benzofuro[3,2-d]pyrimidin-4(3H)-one]	< 10 µM	< 10 µM	< 10 µM	–

Results, then the compound that gave them:

IC50 [1, 4]	IC50 [2]	IC50 [3]	IC50 [1, 5]	SMILES
< 10 µM	< 10 µM	< 10 µM	–	O=c1[nH]c(-c2ccc(NCC3CCNC3)cc2Cl)nc2c1oc1ccc(Br)cc12 (stereo not drawn) [Compound 154, 8-bromo-2-{2-chloro-4-[(pyrrolidin-3-ylmethyl)amino]phenyl}[1]benzofuro[3,2-d]pyrimidin-4(3H)-one]
< 10 µM	< 10 µM	< 10 µM	< 0.1 µM	O=c1[nH]c(C2CCNCC2)nc2c1oc1ccc(Br)cc12 [Compound 157, 8-bromo-2-piperidin-4-yl[1]benzofuro[3,2-d]pyrimidin-4(3H)-one]
< 10 µM	< 10 µM	< 10 µM	< 0.1 µM	O=c1[nH]c(C2CCCNC2)nc2c1oc1ccc(Br)cc12 (stereo not drawn) [Compound 158, 8-Bromo-2-piperidin-3-yl[1]benzofuro[3,2-d]pyrimidin-4(3H)-one]
< 10 µM	< 10 µM	< 10 µM	< 0.1 µM	O=c1[nH]c(C2CCCN2)nc2c1oc1ccc(Br)cc12 (stereo not drawn) [Compound 169, 8-bromo-2-pyrrolidin-2-yl[1]benzofuro[3,2-d]pyrimidin-4(3H)-one]
< 10 µM	< 10 µM	< 10 µM	< 0.1 µM	CC(N)c1nc2c(oc3ccc(Br)cc32)c(=O)[nH]1 (stereo not drawn) [Compound 175, 2-(1-aminoethyl)-8-bromo[1]benzofuro[3,2-d]pyrimidin-4(3H)-one]
< 10 µM	< 10 µM	< 10 µM	< 0.1 µM	CN1CCCC(c2nc3c(oc4ccc(Br)cc43)c(=O)[nH]2)C1 (stereo not drawn) [Compound 184, dihydrochloride]
< 10 µM	< 10 µM	< 10 µM	< 0.1 µM	CN1CCC(c2nc3c(oc4ccc(Br)cc43)c(=O)[nH]2)CC1 [Compound 185, 8-Bromo-2-(1-methylpiperidin-4-yl)[1]benzofuro[3,2-d]pyrimidin-4(3H)-one]
< 10 µM	< 10 µM	< 10 µM	< 0.1 µM	O=c1[nH]c(C2CCNC2)nc2c1oc1ccc(Br)cc12 (stereo not drawn) [Compound 186, 8-bromo-2-pyrrolidin-3-yl[1]benzofuro[3,2-d]pyrimidin-4(3H)-one]
< 10 µM	< 10 µM	< 10 µM	–	CC(C)(NCc1nc2c(oc3ccc(Br)cc32)c(=O)[nH]1)C(=O)O [Compound 189, N-[(8-bromo-4-oxo-3,4-dihydro[1]benzofuro[3,2-d]pyrimidin-2-yl)methyl]-2-methylalanine]
< 10 µM	< 10 µM	< 10 µM	< 0.1 µM	CC(C)(CN1CCCCC1)NCc1nc2c(oc3ccc(Br)cc32)c(=O)[nH]1 [Compound 191, 8-bromo-2-{[(1,1-dimethyl-2-piperidin-1-ylethyl)amino]methyl}[1]benzofuro[3,2-d]pyrimidin-4(3H)-one]
< 10 µM	< 10 µM	< 10 µM	–	O=c1[nH]c(CC2CCCNC2)nc2c1oc1ccc(Br)cc12 (stereo not drawn) [Compound 194, 8-bromo-2-(piperidin-3-ylmethyl)[1]benzofuro[3,2-d]pyrimidin-4(3H)-one]
< 10 µM	< 10 µM	< 10 µM	–	NCc1nc2c(oc3ccc(Br)cc32)c(=O)[nH]1 [Compound 195, 2-(aminomethyl)-8-bromo[1]benzofuro[3,2-d]pyrimidin-4(3H)-one]
< 10 µM	< 10 µM	< 10 µM	< 0.1 µM	O=c1[nH]c(C2CNC2)nc2c1oc1ccc(Br)cc12 [Compound 198, 2-Azetidin-3-yl-8-bromo[1]benzofuro[3,2-d]pyrimidin-4(3H)-one]
< 10 µM	< 10 µM	< 10 µM	< 0.1 µM	O=c1[nH]c(CNC2CCCC2)nc2c1oc1ccc(Br)cc12 [Compound 199, 8-bromo-2-[(cyclopentylamino)methyl][1]benzofuro[3,2-d]pyrimidin-4(3H)-one]
< 10 µM	< 10 µM	< 10 µM	< 0.1 µM	CC1CCN(Cc2nc3c(oc4ccc(Br)cc43)c(=O)[nH]2)CC1 [Compound 201, 8-bromo-2-[(4-methylpiperidin-1-yl)methyl][1]benzofuro[3,2-d]pyrimidin-4(3H)-one]
< 10 µM	< 10 µM	< 10 µM	< 0.1 µM	C[C@@H]1CNC[C@H](C)N1Cc1nc2c(oc3ccc(Br)cc32)c(=O)[nH]1 [Compound 216, 8-bromo-2-{[(2R,6S)-2,6-dimethylpiperazin-1-yl]methyl}[1]benzofuro[3,2-d]pyrimidin-4(3H)-one]
< 10 µM	< 10 µM	< 10 µM	< 0.1 µM	CN1CC(c2nc3c(oc4ccc(Br)cc43)c(=O)[nH]2)C1 [Compound 221, 8-Bromo-2-(1-methylazetidin-3-yl)[1]benzofuro[3,2-d]pyrimidin-4(3H)-one]
< 10 µM	< 10 µM	< 10 µM	< 0.1 µM	NC1CCC(c2nc3c(oc4ccc(Br)cc43)c(=O)[nH]2)CC1 (stereo not drawn) [Compound 223, 2-(4-Aminocyclohexyl)-8-bromo[1]benzofuro[3,2-d]pyrimidin-4(3H)-one]
